The values that follow come from PubChem BioAssay (NCI).

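Interpolation was linear, between the two tested concentrations surrounding the appropriate level; five concentrations were tested over 48 hours in 96-well plates. GI50 is the concentration that inhibits growth by half. The concentration for full growth arrest is given as TGI.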

Assay in all cases: NCI anticancer screen, dose series, 48 h
The test system of experiment [1] is BT-549 breast.
In experiment [2] the test system is HCC-2998 colon.
Experiment [3] concerns HCT-116 colon.
Experiment [4] has as its system HOP-92 NSCLC.
Experiment [5] deals with LOX IMVI melanoma.
Experiment [6] has as its system MCF7 breast.
The subject of experiment [7] is OVCAR-8 ovarian.
In experiment [8] the test system is SF-268 CNS.
The subject of experiment [9] is SF-539 CNS.
The subject of experiment [10] is SW-620 colon.

For `O=C(Nc1nn2c(-c3cc(C(F)(F)F)cc(C(F)(F)F)c3)nnc2s1)C1CCCC1`, the GI50 was 0.796 µM in experiment [1]; 0.685 µM in [2]; 0.518 µM in experiment [3]; 0.197 µM in experiment [4]; 0.807 µM in [5]; 0.512 µM in experiment [6]. The GI50 in [7] was 1.18 µM; in [8], 1.08 µM; in experiment [9], 0.981 µM; in experiment [10], 1.74 µM. The TGI in [1] was greater than 74.7 µM; in experiment [2] it was greater than 100 µM; in experiment [3] it was greater than 100 µM; in [4], 0.876 µM; in [5], greater than 100 µM; in [6] it was greater than 33.7 µM. The TGI in experiment [7], in experiment [8], in [9] and in experiment [10] was greater than 100 µM each time.

For the molecule `Nc1nc2[nH]cc(CCc3ccc(C(=O)N[C@@H](CCC(=O)O)C(=O)O)cc3)c2c(=O)[nH]1`, the GI50 in experiment [1] was greater than 71.7 µM; in experiment [2] it was 0.0576 µM; in experiment [3] it was 0.127 µM; in experiment [5], 0.111 µM; in [6] it was 0.0246 µM; in [7], 0.154 µM. The GI50 is 0.219 µM in [8] and 0.0774 µM in experiment [9]. Besides, the TGI in experiment [1], in experiment [2], in [3], in experiment [4], in [5] and in experiment [6] was greater than 100 µM in each case. Moreover, the TGI in experiment [7], in experiment [8] and in [10] was greater than 100 µM in each case.

In the case of `Cc1cc2c(cc1C)[n+](=O)c(C(=O)c1ccccc1)c(C(F)F)n2[O-]`, the GI50 was 14.2 µM in [1]; 32.8 µM in experiment [2]; 30.8 µM in experiment [3]; 37.7 µM in experiment [4]; 10.3 µM in experiment [5]; 12.1 µM in experiment [6]. Further, the GI50 is 7.11 µM in experiment [7], 13 µM in experiment [8], 18.4 µM in experiment [9] and 21.2 µM in experiment [10]. In addition, the TGI in experiment [1] is 65.3 µM; in experiment [2] it was greater than 100 µM; in experiment [3], greater than 100 µM; in experiment [4], greater than 100 µM; in experiment [5], greater than 100 µM; in experiment [6], 41.1 µM. Further, the TGI in [7] is greater than 100 µM; in experiment [8], greater than 100 µM; in [9], 72.5 µM; in experiment [10], greater than 100 µM.

As for `O=C1CSC(=S)N1/N=C/c1ccc(Cl)c([N+](=O)[O-])c1`, the TGI was determined as 37.9 µM in experiment [1]; 27.5 µM in experiment [2]; 48.2 µM in experiment [3]; 67.7 µM in [4]; 47.7 µM in experiment [5]; 32.7 µM in experiment [6]. Moreover, the TGI is 92.2 µM in experiment [7], 40.2 µM in [8], greater than 100 µM in experiment [9] and greater than 100 µM in experiment [10].

Take `Br[Se]c1ccccn1`: the TGI in [1] came to 32.9 µM; in [2], 35.5 µM; in experiment [3], 33 µM; in experiment [4] it was 33 µM; in [5] it was 33 µM; in experiment [6], 32.5 µM. Moreover, the TGI came to 36 µM in experiment [7], 32.2 µM in experiment [8], 30 µM in experiment [9] and 51.4 µM in experiment [10].

On to `Fc1cc(-c2nnc3n2N=C(c2ccc(Cl)cc2)CS3)c(Cl)cc1Cl`, for which the GI50 in experiment [1] is 3.27 µM; in experiment [2] it was 15.9 µM; in [3], 2.36 µM; in experiment [4], 13.7 µM; in experiment [5], 1.77 µM; in experiment [6], 4.56 µM. The GI50 in [7] was 15.3 µM; in experiment [8] it was 13.9 µM; in experiment [9] it was 3.35 µM; in experiment [10] it was 1.55 µM. The TGI in experiment [1] was 8.66 µM; in experiment [2], 31.1 µM; in experiment [3], 5.85 µM; in experiment [4], 36.1 µM; in experiment [5] it was 3.86 µM; in [6], 17.9 µM. The TGI in [7] worked out at 44.3 µM; in [8] it was 33.1 µM; in [9], 11.1 µM; in experiment [10] it was 3 µM.

Take `CCOc1ccc(NC2=CC(=O)C(=O)c3ccccc32)cc1`: the TGI was 3.02 µM in [1]; 26 µM in [2]; 10.1 µM in experiment [3]; 30.7 µM in experiment [4]; 2.77 µM in experiment [5]; 3.93 µM in [6]. Further, the TGI came out at 15.4 µM in [7], 22.4 µM in experiment [8], 4.18 µM in experiment [9] and 3.53 µM in experiment [10].

Consider `COc1cc(-c2nn(-c3cccc(NC(=O)c4ccccc4)c3)cc2-c2ccncc2)ccc1Cl`, for which the GI50 was 0.98 µM in [1]; 2.13 µM in [2]; 0.421 µM in [3]; 0.269 µM in experiment [4]; 0.567 µM in [5]; 0.344 µM in experiment [6]. Besides, the GI50 in experiment [7] is 0.995 µM; in [8] it was 0.596 µM; in experiment [9], 0.413 µM; in [10], 0.451 µM. Also, the TGI in [1] is greater than 100 µM; in experiment [2], 33.6 µM; in [3], greater than 100 µM; in experiment [4], 2.06 µM; in [5] it was greater than 100 µM; in [6], greater than 100 µM. In addition, the TGI in experiment [7] is greater than 100 µM; in [8] it was greater than 54.8 µM; in experiment [9], 2.65 µM; in experiment [10] it was greater than 36.3 µM.

Regarding `O=C1c2ccccc2C(=O)c2c(/C=C\N3CCCCC3)ccnc21`, the TGI in experiment [1] amounted to 2.22 µM; in experiment [2], 11.9 µM; in experiment [3], 5.89 µM; in experiment [4] it was 32.1 µM; in [5], 1.68 µM; in experiment [6], 4.01 µM. Also, the TGI stood at 17.5 µM in experiment [7], 39.9 µM in experiment [8], 9.65 µM in experiment [9] and 4.48 µM in experiment [10].
